# Experiments:
# [1] = tested on: orchidectomized rats (ORX); assay: Three point bending test of the femoral shaft (Example 4); format: in vivo, rat; settings: 12 weeks, mean
# Description: (§1) Eight month-old male Sprague Dawley rats were either sham-operated (SHAM) or orchidectomized (ORX). Treatment began immediately following surgery. The treatment groups were as described in Table 5. Bone strength was evaluated using a compression test at the vertebral body, a three point bending test at the femoral shaft, a compression test at the distal femur and a cantilever compression test of the femoral neck. Prior to mechanical testing, all samples were thawed in cold saline and carefully cleaned of any remaining adherent soft tissue.
# [2] = tested on: orchidectomized (Orx/Cx) male Sprague-Dawley rats; assay: Distal right femur cancellous pQCT (Example 3); format: in vivo, rat; settings: Toremifene 5 mg/kg/day; for cancellous bone mineral content and density (Orx-induced decrease of 34%): Orx rats, 17-β-Estradiol 0.5 mg/kg/day s.c.; for Total Bone Area / Total Bone Content / Total Bone Density / Trabecular Area / Trabecular Content / Trabecular Density: castrated (Cx) rats, distal right femur pQCT, mean, n=5, 17-β-estradiol 0.5 mg/kg/day s.c.
# Description: (§2) Male Sprague-Dawley rats (Harlan Sprague Dawley) were placed on study at 14-weeks of age. They were randomized and divided into five treatment groups: vehicle only (placebo, or P) after sham operation, vehicle only after orchidectomy (Orx), Toremifene (5 mg/kg/day) after sham-operation, and Toremifene after orchidectomy, and 17-β-estradiol (0.5 mg/kg/day) after orchidectomy. Test articles were delivered subcutaneously by Alzet pumps. Pumps were re-implanted every 30 days until the end of the study. Five to six animals from each group were sacrificed after 60 and 120 days of treatment, and femurs were harvested, stripped of soft tissue and muscle, and stored individually in polypropylene vials at −80° C. until analysis of bone density and mechanical strength testing. Additionally, serum was collected on days 15, 30, 60, 90 and 120, to measure markers of bone metabolism and to perform serum chemistry.
# Peripheral Quantitative Computed Tomography (pQCT)
# Right femurs were subjected to pQCT analysis using a Stratec XCT-RM with associated software (Stratec Medizintechnik GmbH, Pforzheim, Germany. Software version 5.40 C). Femurs were scanned at two sites, 20% and 50% of the total femoral length measured from the distal femur. The position was verified using scout views, and scan results from two 0.5 mm slices perpendicular to the long axis of the femur shaft were recorded.
# [3] = tested on: orchidectomized (Orx/Cx) male Sprague-Dawley rats; assay: Compression test of the distal right femur (Example 3); format: in vivo, rat; settings: Toremifene 5 mg/kg/day; for mechanical strength parameters of the distal femur (maximum load, stiffness, ultimate strength, elastic modulus): Orx rats, 17-β-Estradiol 0.5 mg/kg/day s.c.; for Elastic Modulus / Energy / Maximum Load / Stiffness / Toughness / Ultimate Strength / CSA (cross sectional area): castrated (Cx) rats, n=5, 17-β-estradiol 0.5 mg/kg/day s.c.; for Elastic Modulus / Energy / Maximum Load / Stiffness / Toughness / Ultimate Strength: distal right femur compression; for CSA (cross sectional area): distal right femur specimen
# Description: Using a Material Testing System (Model 5501R Instron Corp., Canton, Mass.), two types of mechanical testing were performed on the right femur. The load and extension curves were collected by the machine software (Merlin II, Instron Corp.). All tests were conducted using a 5 kN load cell at a constant loading rate of 6 mm/min. The general applications of the tests were as described in Turner and Burr (Bone, 1993; 14: 595-608) and Ke et al (Bone, 1998; 23, 249-255).
# Compression Test of the Distal Femur
# A compression test was used to determine the mechanical properties of the distal femur. The distal femur test specimen was obtained by removing a 3 mm segment directly proximal to the distal condyle using a slow speed diamond saw with constant saline irrigation. An electronic caliper was used to measure the average anterior/posterior diameter (a), medial/lateral diameter (b), and height (h) of the bone. The extrinsic parameters, maximal load (Fu), stiffness (S) and energy (W), were obtained from the load and extension curve. The following intrinsic parameters were calculated from the measured values: Cross sectional area (CSA)=(π*a*b)/4; Ultimate Strength (σ)=Fu/CSA; Elastic modulus (E)=S/(CSA/h); Toughness (T)=W/(CSA*h).
# [4] = tested on: RatLaps (CTX) in rat serum; assay: CTX (RatLaps) in rat serum (Example 4); format: in vivo; settings: Orx rats
# Description: The assay was performed in duplicates, each 20 ul of serum as well as standards and control. Briefly, 100 ul of Biotinylated RatLaps Antigen was incubated 30 min in each well, strips were washed and 20 ul of Standard, Control and unknown samples were added to appropriate wells, followed by 100 ul of primary antibody (polyclonal Ab raised against a synthetic peptide EKSQDGGR specific for a part of the C-terminal telopeptide alpha 1 chain of rat type I collagen). After overnight incubation at 4 C., the wells were washed and 100 ul of Peroxidase conjugated Goat anti-Rabbit IgG Antibody was added to each well and incubated 60 min. After washing the strips 100 ul of the Chromogenic Substrate Solution was added to each well, and after 15 min the reaction was stopped and the absorbance was measured at 450 nm. The means of the duplicate absorbance determination were calculated, and a standard curve was constructed using 4-parametric logistic curve fit. Sample RatLaps concentrations were determined by interpolation.
# Eight month-old male Sprague Dawley rats were either sham-operated (SHAM) or orchidectomized (ORX). Treatment began immediately following surgery. The treatment groups were as described in Table 5.
# rat Osteocalcin in serum = assay: Rat Osteocalcin EIA in serum, orchidectomy model (Example 3); format: in vivo; settings: castrated rats
# Description: as §2
# After collection, serum was divided into 3 aliquots and stored at −80° C. until analysis. 125 ul for serum biochemistry performed by AniLytics, Gaithersburg, Md. (Bone-Specific Alkaline Phosphatase, Calcium, Phosphorus, Creatinine and Bilirubin). 100 ul for serum Rat Osteocalcin ELISA and Serum RatLaps ELISA for C-terminal telopeptides determination. The rest of the collected serum was left for repeated test if necessary.
# Rat Osteocalcin EIA, Biomedical Technologies, MA
# This assay is specific for rat Osteocalcin and both carboxylated and decarboxylated rat Osteocalcin are recognized. A monoclonal antibody against the N-terminal region of Osteocalcin is bound to the polystyrene wells. The assay was performed in duplicates. 100 ul of standards, control and 1 to 20 diluted samples were added to appropriate wells and incubated overnight at 4 C. After washing the strips, 100 ul of Goat polyclonal antibody of high specificity for C-terminus of rat Osteocalcin was added and incubated 60 min at 37 C. […] The reaction was stopped, and the absorbance was measured at 450 nm. […] Sample osteocalcin concentrations were determined by interpolation.
# [5] = tested on: orchidectomized rats (ORX); assay: Cantilever compression test of the femoral neck (Example 4); format: in vivo, rat; settings: 12 weeks, mean
# Description: as §1
# [6] = Toremifene 5 mg/kg/d, Estradiol 0.2 mg/kg/d
# [7] = 28 days, E 0.2 mg/kg/d, 10 mg Tor
# [8] = 42 days, E 0.2 mg/kg/d, 10 mg-Tor
# [9] = up to 120 days, Toremifene 5 mg/kg/day, 17-β-estradiol 0.5 mg/kg/day s.c., FIG. 2B
SMILES,"Elastic Modulus [1, 6] [MPa]","Energy [1, 6] [mJ]","Maximum Load [1, 6] [N]","Stiffness [1, 6] [N/mm]","Toughness [1, 6] [MJ/m^3]","Ultimate Strength [1, 6] [N/mm^2]",cancellous bone mineral content and density (Orx-induced decrease of 34%) [2],Total Bone Area [2] [mm^2],Total Bone Content [2] [mg/mm],Total Bone Density [2] [mg/mL],Trabecular Area [2] [mm^2],Trabecular Content [2] [mg/mm],Trabecular Density [2] [mg/mL],"mechanical strength parameters of the distal femur (maximum load, stiffness, ultimate strength, elastic modulus) [3]",Elastic Modulus [3] [MPa],Energy [3] [mJ],Maximum Load [3] [N],Stiffness [3] [N/mm],Toughness [3] [MJ/m³],Ultimate Strength [3] [N/mm^2],also measured
C[C@]12CC[C@@H]3c4ccc(O)cc4CC[C@H]3[C@@H]1CC[C@@H]2O [17-β-Estradiol],5149.41,98.61,287.22,986.71,6.85,172.51,fully prevent this cancellous bone loss,15.95,11.01,690.74,7.17,1.52,210.28,statistically significant improvements in these parameter values,753.44,58.28,613.61,4842.67,0.98,31.23,"CSA (cross sectional area) [3]: 19.75 mm^2; CTX levels in serum ([4]; 10 days): Neither E nor Tor had any effect on CTX; CTX levels in serum [4, 7]: reduced the CTX levels; CTX levels in serum [4, 8]: CTX levels did not change further; serum osteocalcin levels (rat Osteocalcin in serum; [9]): significantly reduce osteocalcin levels to below that of intact control rats; Energy ([5]; 0.2 mg/kg/d): 40.07 mJ; Maximum Load ([5]; 0.2 mg/kg/d): 114.96 N; Stiffness ([5]; 0.2 mg/kg/d): 209.95 N/mm"
CN(C)CCOc1ccc(/C(=C(/CCCl)c2ccccc2)c2ccccc2)cc1 [Toremifene],4505.90,83.40,263.54,944.78,5.67,150.45,partially prevented this decrease,15.96,10.69,669.74,7.18,1.13,157.56,improved various parameters to a level that was better than Sham-operated animals,579.07,56.96,467.01,3856.71,0.86,22.13,"Elastic Modulus ([1]; Toremifene 10 mg/kg/d): 4557.46 MPa; Energy ([1]; Toremifene 10 mg/kg/d): 88.58 mJ; Maximum Load ([1]; Toremifene 10 mg/kg/d): 272.56 N; Stiffness ([1]; Toremifene 10 mg/kg/d): 910.47 N/mm; Toughness ([1]; Toremifene 10 mg/kg/d): 6.16 MJ/m^3; Ultimate Strength ([1]; Toremifene 10 mg/kg/d): 161.23 N/mm^2; CSA (cross sectional area) [3]: 21.30 mm^2; CTX levels in serum ([4]; 10 days): Neither E nor Tor had any effect on CTX; CTX levels in serum [4, 7]: reduced the CTX levels; CTX levels in serum [4, 8]: significantly lower CTX levels; effect on CTX ([4]; 5 mg Tor): not uniform and cannot be interpreted; serum osteocalcin levels (rat Osteocalcin in serum; 15 days (p<0.05) and 30 days (p<0.02), Toremifene 5 mg/kg/day s.c., FIG. 2A): significantly reduced the osteocalcin levels in castrated animals to intact control levels; serum osteocalcin levels (rat Osteocalcin in serum; [9]): significantly reduce osteocalcin levels to below that of intact control rats; Energy ([5]; 5 mg/kg/d): 46.53 mJ; Maximum Load ([5]; 5 mg/kg/d): 116.46 N; Stiffness ([5]; 5 mg/kg/d): 211.77 N/mm; Energy ([5]; 10 mg/kg/d): 44.59 mJ; Maximum Load ([5]; 10 mg/kg/d): 117.50 N; Stiffness ([5]; 10 mg/kg/d): 211.73 N/mm"
